According to patent US12396461B2, “Functional peptides having antimicrobial activity against phytopathogenic microorganisms” (TOYOTA JIDOSHA KABUSHIKI KAISHA, priority 2019, dated 2025):
Where two headings read alike, the source gives them in different places.

Assays:
Assay type in all cases: cell-based
[1] = tested on: Botrytis cinerea; design: key to Plate antimicrobial activity test Botrytis cinerea, level: a case where hyphae extended to the entire well and no antimicrobial activity was found is defined as “level 0,”; a case where hyphae extended to less than a half of the well and thus the peptide inhibited the growth of the hyphae is defined as “level 1,”; a case where ungerminated spores were present and the peptide partially inhibited the germination is defined as “level 2,”; a case where all spores were ungerminated and the peptide completely inhibited the germination is defined as “level 3.”; settings: 25° C. for 1 day or 2 days, microscopic observation
[2] = tested on: Colletotrichum destructivum; design: key to Plate antimicrobial activity test Colletotrichum destructivum, level: a case where hyphae extended to the entire well and no antimicrobial activity was found is defined as “level 0,”; a case where hyphae extended to less than a half of the well and thus the peptide inhibited the growth of the hyphae is defined as “level 1,”; a case where ungerminated spores were present and the peptide partially inhibited the germination is defined as “level 2,”; a case where all spores were ungerminated and the peptide completely inhibited the germination is defined as “level 3.”; settings: 25° C. for 1 day or 2 days, microscopic observation
[3] = tested on: Colletotrichum orbiculare; design: key to Plate antimicrobial activity test Colletotrichum orbiculare, level: a case where hyphae extended to the entire well and no antimicrobial activity was found is defined as “level 0,”; a case where hyphae extended to less than a half of the well and thus the peptide inhibited the growth of the hyphae is defined as “level 1,”; a case where ungerminated spores were present and the peptide partially inhibited the germination is defined as “level 2,”; a case where all spores were ungerminated and the peptide completely inhibited the germination is defined as “level 3.”; settings: 25° C. for 1 day or 2 days, microscopic observation
[4] = tested on: Fusarium oxysporum; design: key to Plate antimicrobial activity test Fusarium oxysporum, level: a case where hyphae extended to the entire well and no antimicrobial activity was found is defined as “level 0,”; a case where hyphae extended to less than a half of the well and thus the peptide inhibited the growth of the hyphae is defined as “level 1,”; a case where ungerminated spores were present and the peptide partially inhibited the germination is defined as “level 2,”; a case where all spores were ungerminated and the peptide completely inhibited the germination is defined as “level 3.”
[5] = tested on: Pyricularia oryzae; design: key to Plate antimicrobial activity test Pyricularia oryzae, level: a case where hyphae extended to the entire well and no antimicrobial activity was found is defined as “level 0,”; a case where hyphae extended to less than a half of the well and thus the peptide inhibited the growth of the hyphae is defined as “level 1,”; a case where ungerminated spores were present and the peptide partially inhibited the germination is defined as “level 2,”; a case where all spores were ungerminated and the peptide completely inhibited the germination is defined as “level 3.”; settings: 25° C. for 1 day or 2 days, microscopic observation

KVAKMMVK (listed as Solanum lycopersicum) [TsORF6-1-8aa-15, partial peptide of TsORF6-1, 8 amino acid residues]
0: Plate antimicrobial activity test Botrytis cinerea, level ([1]; peptide 1 μM) | Plate antimicrobial activity test Botrytis cinerea, level ([1]; peptide 10 μM) | Plate antimicrobial activity test Botrytis cinerea, level ([1]; peptide 100 μM) | Plate antimicrobial activity test Colletotrichum destructivum, level ([2]; peptide 1 μM) | Plate antimicrobial activity test Colletotrichum destructivum, level ([2]; peptide 10 μM) | Plate antimicrobial activity test Colletotrichum destructivum, level ([2]; peptide 100 μM) | Plate antimicrobial activity test Colletotrichum orbiculare, level ([3]; peptide 1 μM) | Plate antimicrobial activity test Colletotrichum orbiculare, level ([3]; peptide 10 μM) | Plate antimicrobial activity test Colletotrichum orbiculare, level ([3]; peptide 100 μM) | Plate antimicrobial activity test Fusarium oxysporum, level [4] | Plate antimicrobial activity test Pyricularia oryzae, level ([5]; peptide 1 μM) | Plate antimicrobial activity test Pyricularia oryzae, level ([5]; peptide 10 μM) | Plate antimicrobial activity test Pyricularia oryzae, level ([5]; peptide 100 μM)

VKNKKVAK (listed as Solanum lycopersicum) [TsORF6-1-8aa-11, partial peptide of TsORF6-1, 8 amino acid residues]
0: Plate antimicrobial activity test Botrytis cinerea, level ([1]; peptide 1 μM) | Plate antimicrobial activity test Botrytis cinerea, level ([1]; peptide 10 μM) | Plate antimicrobial activity test Botrytis cinerea, level ([1]; peptide 100 μM) | Plate antimicrobial activity test Colletotrichum destructivum, level ([2]; peptide 1 μM) | Plate antimicrobial activity test Colletotrichum destructivum, level ([2]; peptide 10 μM) | Plate antimicrobial activity test Colletotrichum destructivum, level ([2]; peptide 100 μM) | Plate antimicrobial activity test Colletotrichum orbiculare, level ([3]; peptide 1 μM) | Plate antimicrobial activity test Colletotrichum orbiculare, level ([3]; peptide 10 μM) | Plate antimicrobial activity test Colletotrichum orbiculare, level ([3]; peptide 100 μM) | Plate antimicrobial activity test Fusarium oxysporum, level [4] | Plate antimicrobial activity test Pyricularia oryzae, level ([5]; peptide 1 μM) | Plate antimicrobial activity test Pyricularia oryzae, level ([5]; peptide 10 μM) | Plate antimicrobial activity test Pyricularia oryzae, level ([5]; peptide 100 μM)

KKVAKMMV (listed as Solanum lycopersicum) [TsORF6-1-8aa-14, partial peptide of TsORF6-1, 8 amino acid residues]
0: Plate antimicrobial activity test Botrytis cinerea, level ([1]; peptide 1 μM) | Plate antimicrobial activity test Botrytis cinerea, level ([1]; peptide 10 μM) | Plate antimicrobial activity test Botrytis cinerea, level ([1]; peptide 100 μM) | Plate antimicrobial activity test Colletotrichum destructivum, level ([2]; peptide 1 μM) | Plate antimicrobial activity test Colletotrichum destructivum, level ([2]; peptide 10 μM) | Plate antimicrobial activity test Colletotrichum destructivum, level ([2]; peptide 100 μM) | Plate antimicrobial activity test Colletotrichum orbiculare, level ([3]; peptide 1 μM) | Plate antimicrobial activity test Colletotrichum orbiculare, level ([3]; peptide 10 μM) | Plate antimicrobial activity test Colletotrichum orbiculare, level ([3]; peptide 100 μM) | Plate antimicrobial activity test Fusarium oxysporum, level [4] | Plate antimicrobial activity test Pyricularia oryzae, level ([5]; peptide 1 μM) | Plate antimicrobial activity test Pyricularia oryzae, level ([5]; peptide 10 μM) | Plate antimicrobial activity test Pyricularia oryzae, level ([5]; peptide 100 μM)

VVKTK (listed as Solanum lycopersicum) [TsORF6-1-5aa-6, partial peptide of TsORF6-1, 5 amino acid residues]
0: Plate antimicrobial activity test Botrytis cinerea, level ([1]; peptide 1 μM) | Plate antimicrobial activity test Botrytis cinerea, level ([1]; peptide 10 μM) | Plate antimicrobial activity test Botrytis cinerea, level ([1]; peptide 100 μM) | Plate antimicrobial activity test Colletotrichum destructivum, level ([2]; peptide 1 μM) | Plate antimicrobial activity test Colletotrichum destructivum, level ([2]; peptide 10 μM) | Plate antimicrobial activity test Colletotrichum destructivum, level ([2]; peptide 100 μM) | Plate antimicrobial activity test Colletotrichum orbiculare, level ([3]; peptide 1 μM) | Plate antimicrobial activity test Colletotrichum orbiculare, level ([3]; peptide 10 μM) | Plate antimicrobial activity test Colletotrichum orbiculare, level ([3]; peptide 100 μM) | Plate antimicrobial activity test Fusarium oxysporum, level [4] | Plate antimicrobial activity test Pyricularia oryzae, level ([5]; peptide 1 μM) | Plate antimicrobial activity test Pyricularia oryzae, level ([5]; peptide 10 μM) | Plate antimicrobial activity test Pyricularia oryzae, level ([5]; peptide 100 μM)

IVVKTKVK (listed as Solanum lycopersicum) [TsORF6-1-8aa-5, partial peptide of TsORF6-1, 8 amino acid residues]
0: Plate antimicrobial activity test Botrytis cinerea, level ([1]; peptide 1 μM) | Plate antimicrobial activity test Botrytis cinerea, level ([1]; peptide 10 μM) | Plate antimicrobial activity test Botrytis cinerea, level ([1]; peptide 100 μM) | Plate antimicrobial activity test Colletotrichum destructivum, level ([2]; peptide 1 μM) | Plate antimicrobial activity test Colletotrichum destructivum, level ([2]; peptide 10 μM) | Plate antimicrobial activity test Colletotrichum destructivum, level ([2]; peptide 100 μM) | Plate antimicrobial activity test Colletotrichum orbiculare, level ([3]; peptide 1 μM) | Plate antimicrobial activity test Colletotrichum orbiculare, level ([3]; peptide 10 μM) | Plate antimicrobial activity test Colletotrichum orbiculare, level ([3]; peptide 100 μM) | Plate antimicrobial activity test Fusarium oxysporum, level [4] | Plate antimicrobial activity test Pyricularia oryzae, level ([5]; peptide 1 μM) | Plate antimicrobial activity test Pyricularia oryzae, level ([5]; peptide 10 μM) | Plate antimicrobial activity test Pyricularia oryzae, level ([5]; peptide 100 μM)

KNKKVAKM (listed as Solanum lycopersicum) [TsORF6-1-8aa-12, partial peptide of TsORF6-1, 8 amino acid residues]
0: Plate antimicrobial activity test Botrytis cinerea, level ([1]; peptide 1 μM) | Plate antimicrobial activity test Botrytis cinerea, level ([1]; peptide 10 μM) | Plate antimicrobial activity test Botrytis cinerea, level ([1]; peptide 100 μM) | Plate antimicrobial activity test Colletotrichum destructivum, level ([2]; peptide 1 μM) | Plate antimicrobial activity test Colletotrichum destructivum, level ([2]; peptide 10 μM) | Plate antimicrobial activity test Colletotrichum destructivum, level ([2]; peptide 100 μM) | Plate antimicrobial activity test Colletotrichum orbiculare, level ([3]; peptide 1 μM) | Plate antimicrobial activity test Colletotrichum orbiculare, level ([3]; peptide 10 μM) | Plate antimicrobial activity test Colletotrichum orbiculare, level ([3]; peptide 100 μM) | Plate antimicrobial activity test Fusarium oxysporum, level [4] | Plate antimicrobial activity test Pyricularia oryzae, level ([5]; peptide 1 μM) | Plate antimicrobial activity test Pyricularia oryzae, level ([5]; peptide 10 μM) | Plate antimicrobial activity test Pyricularia oryzae, level ([5]; peptide 100 μM)

MIVVKTKV (listed as Solanum lycopersicum) [TsORF6-1-8aa-4, partial peptide of TsORF6-1, 8 amino acid residues]
0: Plate antimicrobial activity test Botrytis cinerea, level ([1]; peptide 1 μM) | Plate antimicrobial activity test Botrytis cinerea, level ([1]; peptide 10 μM) | Plate antimicrobial activity test Botrytis cinerea, level ([1]; peptide 100 μM) | Plate antimicrobial activity test Colletotrichum destructivum, level ([2]; peptide 1 μM) | Plate antimicrobial activity test Colletotrichum destructivum, level ([2]; peptide 10 μM) | Plate antimicrobial activity test Colletotrichum destructivum, level ([2]; peptide 100 μM) | Plate antimicrobial activity test Colletotrichum orbiculare, level ([3]; peptide 1 μM) | Plate antimicrobial activity test Colletotrichum orbiculare, level ([3]; peptide 10 μM) | Plate antimicrobial activity test Colletotrichum orbiculare, level ([3]; peptide 100 μM) | Plate antimicrobial activity test Fusarium oxysporum, level [4] | Plate antimicrobial activity test Pyricularia oryzae, level ([5]; peptide 1 μM) | Plate antimicrobial activity test Pyricularia oryzae, level ([5]; peptide 10 μM) | Plate antimicrobial activity test Pyricularia oryzae, level ([5]; peptide 100 μM)
